{"source": "patent US20230331707A1", "about": "“PROGRAMMED CELL NECROSIS INHIBITOR, PREPARATION METHOD THEREFOR, AND USE THEREOF” (Shanghai Institute of Organic Chemistry, Chinese Academy of …, priority 2020, published 2023)", "key": {"[1]": {"molecular_target": "T1, RIPK1(1-330) protein (Homo sapiens, UniProt Q13546)", "T1 construct": "testing the effect of compound QY-10-40 on the kinase activity of RIPK1(1-330) protein; made in house", "T1 sequence (Q13546 1-330)": "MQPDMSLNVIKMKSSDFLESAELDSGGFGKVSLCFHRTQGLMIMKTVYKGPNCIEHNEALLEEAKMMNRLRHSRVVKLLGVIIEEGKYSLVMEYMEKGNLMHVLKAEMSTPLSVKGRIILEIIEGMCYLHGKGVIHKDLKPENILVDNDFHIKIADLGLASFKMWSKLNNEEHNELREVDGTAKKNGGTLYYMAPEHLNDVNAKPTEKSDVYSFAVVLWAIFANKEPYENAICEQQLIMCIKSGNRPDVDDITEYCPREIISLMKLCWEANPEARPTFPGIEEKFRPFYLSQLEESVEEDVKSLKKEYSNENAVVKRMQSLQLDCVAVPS", "assay": "RIPK1(1-330) kinase activity (ADP-Glo)", "type": "biochemical", "settings": "read-out: effective semi-inhibitory concentration on RIPK1 kinase", "quoted_text": "Methods: RIPK1 (1-330) protein with a final concentration of 2 μM and ATP (IX kinase buffer) with a corresponding concentration, final concentration of 5 μL, were added to the 384-well plate, respectively. Each group at least set up triplicate wells and reacted for 2 h at 37° C. 5 μL ADP-Glo reagent was added, which was used to stop kinase reaction and remove residual ATP in reaction system. The plates was placed at room temperature for 40 min. 10 μL kinase detection reagent was added, which was used to convert ADP into ATP and introduce luciferase and luciferin for ATP detection into the system. The reaction was carried out at room temperature for 1 h. 7500 Fast Real-Time PCR System was used to detect luminescence. The IC50 of the compounds inhibiting the kinase reaction was calculated using Prism Graphpad statistical software."}, "[2]": {"tested_on": "phosphorylation of RIPK1 and phosphorylation of downstream protein MLKL", "assay": "Programmed necrosis pathway signals by western blot in FADD-deficient Jurkat cells", "type": "cell-based, human", "settings": "1.6 nM", "procedure": "(§1) In order to verify whether the compounds of the present invention can inhibit programmed cell necrosis by inhibiting the activity of RIPK1, and to detect the changes in the signal of the programmed necrosis pathway. FADD-deficient Jurkat or L929 cells treated with the compound of the present invention were used, and TNFα was added to induce programmed necrosis. Then the cells were collected and phosphorylation of RIPK1 and oligomerization of MLKL were detected using western blot.\n(§2) Methods: FADD-deficient Jurkat cells or L929 cells were cultured in vitro. After growing to the logarithmic growth phase, the cells were collected, centrifuged at 1000 rpm for 5 min, the supernatant was discarded, and the cell concentration was adjusted to 1×10^6/mL. In the 12-well cell culture plate, each well was added with 1 ml of cells, and 0.2 μL of DMSO solution with a concentration of 50 mM drug or pure DMSO control, and pretreated for 1 h. 0.5 μL of TNF α (PBS solution) with a concentration of 100 μg/ml was added to each stimulated group. […] The BCA protein quantification kit was used to detect the protein content of each group, and PIPA lysis buffer was used to adjust the protein amount to make the final volume being 100 μL. […] The resulting sample was incubated with ECL luminescent solution and the luminescent signal was detected."}, "[3]": {"tested_on": "phosphorylation of RIPK1 and phosphorylation of downstream protein MLKL", "assay": "Programmed necrosis pathway signals by western blot in L929 cells", "type": "cell-based, mouse", "procedure": "as §1, §2"}, "[4]": {"assay": "Pharmacokinetic properties in mice", "type": "in vivo", "procedure": "The adopted biological test protocol was: drug metabolism test of the compound on the mouse in vivo.\nIn order to verify the […], a representative compound QY-10-40 was selected and the pharmacokinetic properties of the compound in mice (n=3) were tested using single administration by gavage (PO, 10 mg/kg) or intravenous injection (IV, 1 mg/kg)."}, "[5]": {"tested_on": "TNFα-induced systemic inflammatory response syndrome", "assay": "TNFα-induced systemic inflammatory response syndrome in mice", "type": "in vivo", "settings": "gavage 2 mg/kg, 20 min before TNFα tail vein injection", "procedure": "The adopted biological test scheme was: Tail vein injection of tumor necrosis factor TNFα would lead to the occurrence of systemic inflammatory response syndrome in mice, resulting in decreased body temperature and death. The effect of representative compound QY-10-40 on TNFα-induced systemic inflammatory response syndrome was tested, and the change in body temperature and death of mice were monitored.\nSystemic inflammatory response syndrome, also known as inflammatory storm, refers to a systemic non-specific inflammatory response caused by infectious or non-infectious injuries such as severe infection, multiple trauma, burns, ischemia reperfusion, and acute pancreatitis. Under this condition, large amounts of inflammatory factors will release, in severe cases organism will loss the control of inflammatory response, resulting in multi-organ failure and even death.\nMethods: The compounds to be tested were dissolved in 0.5% carboxymethyl cellulose according to the required concentration one day in advance, and sonicated overnight. Each mouse was gavaged with 200 μl. 20 min later, […] was injected through the tail vein. Body temperature changes of mice were monitored by infrared thermometer after injection. The effects of the compounds were calculated using Prism Graphpad statistical software."}, "[6]": {"tested_on": "RIPK1^K612R/K612R mutant mice", "assay": "Digestive system inflammation in RIPK1 K612R/K612R mutant mice", "type": "in vivo", "settings": "gavage 25 mg/kg, control Nec-1s 50 mg/kg", "description": "The adopted biological test scheme was: RIPK1^K612R/K612R mutant mice were used as model mice to test the effect of representative compound QY-10-40 or QY-13-19 on spontaneous intestinal inflammation.\nK612R mutation leads to decreased in intracellular RIPK1 level but abnormal activation, making it sensitive to programmed necrosis and caspase-1 activation, and responding to TLRs signaling. RIPK1^K612R/K612R mice will appear responses such as age-dependent reduced RIPK1 expression and abnormal activation, spontaneous intestinal inflammation and splenomegaly.\nMethods: The compounds to be tested were dissolved in 0.5% carboxymethyl cellulose according to the required concentration one day in advance, and sonicated overnight. Mice were gavaged in a volume of 0.1 ml/10 g body weight. Body weight was measured three times a week, and samples were collected at the end of the experiment. The effect of the compounds was calculated using Prism Graphpad statistical software."}, "[7]": {"tested_on": "FADD−/− Jurkat cells", "assay": "Inhibition of TNF-induced programmed necrosis of FADD deficient Jurkat cells (Cell Titer-Glo viability)", "type": "cell-based", "settings": "at 1000-fold effective inhibitory concentration (1 μM); FADD-deficient Jurkat cells or L929 cells"}}, "note": "pIC50: −log10 of the molar value."}
{"compound": "Cn1ncc(C(=O)NCc2ccc(-n3cnc4c(N)ncnc43)cc2)c1Cc1ccccc1", "note": "[QY-10-40]", "values": [{"measurement": "pIC50", "setting": "[1]", "value": 6.66}, {"measurement": "inhibition of phosphorylation of RIPK1 and of downstream protein MLKL", "setting": "[2]", "value": "effectively inhibit"}, {"measurement": "inhibitory effect on pathway signals compared with GSK2982772 and Nec-1s", "setting": "[3]", "value": "far superior to the other two"}, {"measurement": "bioavailability (F) (in words)", "setting": "[4]; PO 10 mg/kg, IV 1 mg/kg", "value": "better bioavailability"}, {"measurement": "half-life (T1/2) (in words)", "setting": "[4]; PO 10 mg/kg, IV 1 mg/kg", "value": "better"}, {"measurement": "blood concentrations for most of the time within 24 h", "setting": "[4]; gavage 10 mg/kg, single dose, 10 nM = effective inhibitory concentration", "value": "> 10", "unit": "nM"}, {"measurement": "time to peak (in words)", "setting": "[4]; single dose (PO 10 mg/kg or IV 1 mg/kg)", "value": "rapidly reach the peak"}, {"measurement": "effect on TNFα-induced hypothermia, inflammation response and death", "setting": "[5]", "value": "effectively resists against TNFα-induced hypothermia, inflammation response and death"}, {"measurement": "effect on body weight and spleen coefficient", "setting": "[6]", "value": "can inhibit the effect of the digestive system inflammation"}, {"measurement": "cytotoxicity", "setting": "[7]", "value": "does not exhibit any cytotoxicity"}]}
